Measured values reported in patent US3953474A.

Key:
[1] = test system: E. tenella; assay: Efficacy against E. tenella in broiler cockerels (Table I); assay type: in vivo, Eimeria tenella; settings: for Percent Mortality: due to coccidiosis; for Percent Weight Gain: normal controls = 100; for Average Cecal Lesion Score: scale 0-4
Protocol: (§1) The anticoccidial effects of the A204I derivatives are illustrated by the effects of various of the compounds in controlling single-species infections of Eimeria tenella, Eimeria necatrix, Eimeria mivati, and Eimeria brunetti and a multiple-species infection of Eimeria maxima and Eimeria tenella in chickens.
(§2) For these studies, groups of five 7-day-old chicks were fed a mash diet containing therein a uniformly dispersed A204I derivative. After having been on this ration for 48 hours, each bird was inoculated with sporulated oocysts of the particular species of Eimeria being tested.
(§3) Some of these groups were also inoculated with Eimeria after 48 hours and served as infected controls. Other of these groups were not inoculated with Eimeria and served as normal controls. The results of treatment were evaluated 7 days after inoculation. The birds were weighed, sacrificed and examined for evidence of coccidial lesions. Coccidial involvement was expressed on an arbitrary scale, increasing from zero (no evidence of coccidiosis) to four (maximum involvement for the Eimeria sp. tested). The percent reduction in lesion score is calculated by subtracting the average lesion score of the treated group from the average lesion score of the infected control group, dividing this difference by the average lesion score of the infected control group, and multiplying the quotient by 100.
(§4) The percent weight gain is calculated using the weight gain of normal controls as 100 percent.

[2] = Acute oral toxicity in mice; settings: mouse, in vivo
Text: The acute toxicities in mice of various of the A204I derivatives, also administered orally and expressed as LD50, are as follows: […]

[3] = test system: E. necatrix; assay: Efficacy against E. necatrix in broiler cockerels (Table II); assay type: in vivo, Eimeria necatrix; settings: for Percent Mortality: due to coccidiosis; for Percent Weight Gain: normal controls = 100; for Average Intestinal Lesion Score: scale 0-4; for Percent Reduction Lesion Score: vs infected controls
Protocol: as §1, §2, §3, §4

[4] = test system: E. mivati; assay: Efficacy against E. mivati in broiler cockerels (Table III); assay type: in vivo, Eimeria mivati; settings: for Percent Mortality: due to coccidiosis; for Percent Weight Gain: normal controls = 100; for Average Intestinal Lesion Score: scale 0-4; for Percent Reduction Lesion Score: vs infected controls
Protocol: as §1, §2, §3, §4

[5] = test system: E. brunetti; assay: Efficacy against E. brunetti in broiler cockerels (Table IV); assay type: in vivo, Eimeria brunetti; settings: for Percent Mortality: due to coccidiosis; for Percent Weight Gain: normal controls = 100; for Average Lesion Score: scale 0-4; for Percent Reduction Lesion Score: vs infected controls
Protocol: as §1, §2, §3, §4

[6] = test system: E. maxima and E. tenella; assay: Efficacy against a mixed infection of E. maxima and E. tenella in broiler cockerels (Table V); assay type: in vivo, Eimeria maxima and Eimeria tenella; settings: for Percent Mortality: due to coccidiosis; for Percent Weight Gain: normal controls = 100; for Cecal Lesions, Average Lesion Score / Intestinal Lesions, Average Lesion Score: scale 0-4; for Intestinal Lesions, Percent Reduction Lesion Score / Cecal Lesions, Percent Reduction Lesion Score: vs infected controls
Protocol: as §1, §2, §3, §4

[7] = Rat feeding studies (Table VII); assay type: in vivo, rats; settings: 14 days, mean
Protocol: For this test, five rats of each sex were studied for 14 days at each treatment level. The mean changes in body weight and the mean amounts of food ingested were calculated for each group.

[8] = pKa' determination; settings: 66% aqueous dimethylformamide
[9] = second experiment, .0025 percent in diet
[10] = second experiment, .0025 percent in diet, vs infected control
[11] = first experiment, .00165 percent in diet
[12] = first experiment, .0066 percent in diet
[13] = second experiment, .005 percent in diet

In the case of `COCCOC1(C(C)C(=O)O)OC(CC2CC(OC)C(C)C3(O2)OC(C)(C2CCC(C4CCC(C5OC(C)(O)C(C)C(OC)C5C)O4)O2)C(OC)C3C)C(C)(OC)C(OC2CCC(OC)C(C)O2)C1C` (stereo not shown) [A204I 2-methoxyethyl ether derivative], the “Percent Mortality” value [1, 9] is reported as 0%, the “Percent Weight Gain” value [1, 9] is reported as 90% and the “Average Cecal Lesion Score” value [1, 9] is reported as 2.9. For the same compound, the “Percent Reduction Lesion Score” value [1, 10] was < 40%.
In the case of `COC1CCC(OC2C(C)C(OC(C)C)(C(C)C(=O)O)OC(CC3CC(OC)C(C)C4(O3)OC(C)(C3CCC(C5CCC(C6OC(C)(O)C(C)C(OC)C6C)O5)O3)C(OC)C4C)C2(C)OC)OC1C` (stereo not shown) [A204I isopropyl ether, A204I isopropyl ether derivative], the “Percent Mortality” value [1, 9] is reported as 0%, the “Percent Weight Gain” value [1, 9] is reported as 95% and the “Average Cecal Lesion Score” value [1, 9] is reported as 2.3. For the same compound, the “Percent Reduction Lesion Score” value [1, 10] was < 40% and the LD50 [2] was 20 to 36 mg/kg.
In the case of `CCCOC1(C(C)C(=O)O)OC(CC2CC(OC)C(C)C3(O2)OC(C)(C2CCC(C4CCC(C5OC(C)(O)C(C)C(OC)C5C)O4)O2)C(OC)C3C)C(C)(OC)C(OC2CCC(OC)C(C)O2)C1C` (stereo not shown) [A204I n-propyl ether, A204I n-propyl ether derivative], the “Percent Mortality” value [1, 11] is reported as 35%, the “Percent Weight Gain” value [1, 11] is reported as 79% and the “Average Cecal Lesion Score” value [1, 11] is reported as 4.0. For the same compound, the “Percent Reduction Lesion Score” value ([1]; first experiment, .00165 percent in diet, vs infected controls) was 0%, the “Percent Mortality” value [1, 12] was 20% and the “Percent Weight Gain” value [1, 12] was 79%. The “Average Cecal Lesion Score” value [1, 12] was 3.7, the “Percent Reduction Lesion Score” value ([1]; first experiment, .0066 percent in diet, vs infected controls) was 0% and the “Percent Mortality” value [1, 9] was 0%. The “Percent Weight Gain” value [1, 9] was 87%, the “Average Cecal Lesion Score” value [1, 9] was 1.8 and the “Percent Reduction Lesion Score” value [1, 10] was 50%. For the same compound, the “Percent Mortality” value [1, 13] was 0%, the “Percent Weight Gain” value [1, 13] was 96% and the “Average Cecal Lesion Score” value [1, 13] was 0. For the same compound, the “Percent Reduction Lesion Score” value ([1]; second experiment, .005 percent in diet, vs infected control) was 100%, the “Percent Mortality” value ([3]; .0025 percent in diet) was 0% and the “Percent Weight Gain” value ([3]; .0025 percent in diet) was 63%. For the same compound, the “Average Intestinal Lesion Score” value ([3]; .0025 percent in diet) was 1.6, the “Percent Reduction Lesion Score” value ([3]; .0025 percent in diet) was 59% and the “Percent Mortality” value ([3]; .005 percent in diet) was 6.7%. The “Percent Weight Gain” value ([3]; .005 percent in diet) was 92%, the “Average Intestinal Lesion Score” value ([3]; .005 percent in diet) was 0.2 and the “Percent Reduction Lesion Score” value ([3]; .005 percent in diet) was 95%. For the same compound, the “Percent Mortality” value ([3]; .01 percent in diet) was 0%, the “Percent Weight Gain” value ([3]; .01 percent in diet) was 89% and the “Average Intestinal Lesion Score” value ([3]; .01 percent in diet) was 0. For the same compound, the “Percent Reduction Lesion Score” value ([3]; .01 percent in diet) was 100%, the “Percent Mortality” value ([4]; .0025 percent in diet) was 0% and the “Percent Weight Gain” value ([4]; .0025 percent in diet) was 94%. The “Average Intestinal Lesion Score” value ([4]; .0025 percent in diet) was 0.27, the “Percent Reduction Lesion Score” value ([4]; .0025 percent in diet) was 85% and the “Percent Mortality” value ([4]; .005 percent in diet) was 0%. The “Percent Weight Gain” value ([4]; .005 percent in diet) was 97%, the “Average Intestinal Lesion Score” value ([4]; .005 percent in diet) was 0 and the “Percent Reduction Lesion Score” value ([4]; .005 percent in diet) was 100%. For the same compound, the “Percent Mortality” value ([4]; .01 percent in diet) was 0%, the “Percent Weight Gain” value ([4]; .01 percent in diet) was 98% and the “Average Intestinal Lesion Score” value ([4]; .01 percent in diet) was 0. For the same compound, the “Percent Reduction Lesion Score” value ([4]; .01 percent in diet) was 100%, the “Percent Mortality” value ([5]; .0025 percent in diet) was 0% and the “Percent Weight Gain” value ([5]; .0025 percent in diet) was 95%. For the same compound, the “Average Lesion Score” value ([5]; .0025 percent in diet) was 0.80, the “Percent Mortality” value ([5]; .005 percent in diet) was 0% and the “Percent Weight Gain” value ([5]; .005 percent in diet) was 89%. For the same compound, the “Average Lesion Score” value ([5]; .005 percent in diet) was 0, the “Percent Reduction Lesion Score” value ([5]; .005 percent in diet) was 100% and the “Percent Mortality” value ([5]; .01 percent in diet) was 0%. For the same compound, the “Percent Weight Gain” value ([5]; .01 percent in diet) was 89%, the “Average Lesion Score” value ([5]; .01 percent in diet) was 0 and the “Percent Reduction Lesion Score” value ([5]; .01 percent in diet) was 100%. The “Percent Mortality” value ([6]; .0025 percent in diet) was 0%, the “Percent Weight Gain” value ([6]; .0025 percent in diet) was 94% and the “Cecal Lesions, Average Lesion Score” value ([6]; .0025 percent in diet) was 2.67. The “Intestinal Lesions, Average Lesion Score” value ([6]; .0025 percent in diet) was 0.13, the “Intestinal Lesions, Percent Reduction Lesion Score” value ([6]; .0025 percent in diet) was 84% and the “Percent Mortality” value ([6]; .005 percent in diet) was 0%. The “Percent Weight Gain” value ([6]; .005 percent in diet) was 99%, the “Cecal Lesions, Average Lesion Score” value ([6]; .005 percent in diet) was 0.07 and the “Intestinal Lesions, Average Lesion Score” value ([6]; .005 percent in diet) was 0.07. For the same compound, the “Cecal Lesions, Percent Reduction Lesion Score” value ([6]; .005 percent in diet) was 98%, the “Intestinal Lesions, Percent Reduction Lesion Score” value ([6]; .005 percent in diet) was 91% and the “Percent Mortality” value ([6]; .01 percent in diet) was 0%. The “Percent Weight Gain” value ([6]; .01 percent in diet) was 98%, the “Cecal Lesions, Average Lesion Score” value ([6]; .01 percent in diet) was 0 and the “Intestinal Lesions, Average Lesion Score” value ([6]; .01 percent in diet) was 0. The “Cecal Lesions, Percent Reduction Lesion Score” value ([6]; .01 percent in diet) was 100%, the “Intestinal Lesions, Percent Reduction Lesion Score” value ([6]; .01 percent in diet) was 100% and the LD50 [2] was 38 ± 6 mg/kg. For the same compound, the “Body Weight Change” value ([7]; female, 5 ppm) was “+34.0 g”, the Food ingested ([7]; female, 5 ppm) was 224 g and the “Body Weight Change” value ([7]; female, 10 ppm) was “+36.0 g”. For the same compound, the Food ingested ([7]; female, 10 ppm) was 218 g, the “Body Weight Change” value ([7]; female, 20 ppm) was “+31.6 g” and the Food ingested ([7]; female, 20 ppm) was 229 g. For the same compound, the “Body Weight Change” value ([7]; male, 5 ppm) was “+77.8 g”, the Food ingested ([7]; male, 5 ppm) was 281 g and the “Body Weight Change” value ([7]; male, 10 ppm) was “+45.2 g”. For the same compound, the Food ingested ([7]; male, 10 ppm) was 221 g, the “Body Weight Change” value ([7]; male, 20 ppm) was “+66.6 g” and the Food ingested ([7]; male, 20 ppm) was 288 g. The pKa [8] was 7.8.
